Measurements as given in ChEMBL document CHEMBL2150986, “Synthesis and biological evaluation of 1-benzylidene-3,4-dihydronaphthalen-2-one as a new class of microtubule-targeting agents” (J Med Chem, 2012).
Blank lines part the entries; values can stand above or below the molecule they belong to.

Experiments:
HCT-116 = assay: cells; settings: Homo sapiens, HCT-116, 72 h
MDA-MB-435 = assay: cells; settings: Homo sapiens, MDA-MB-435, 72 h
Description: Cytotoxicity against human MDA-MB-435 cells after 72 hrs by MTT assay

CCRF-CEM = assay: Cytotoxicity against human CEM cells after 72 hrs by MTT assay; format: functional, cell-based
Tubulin = Tubulin (Sus scrofa, UniProt P02554+P02550); assay: Inhibition of porcine brain tubulin assembly measured every 1 min for 60 mins by turbidimetric analysis

SMILES: COc1cc(/C=C2/C(=O)CCc3cc(OC)ccc32)cc(OC)c1
- IC50 (HCT-116): 150 nM
- IC50 (MDA-MB-435): 390 nM
- IC50 (CCRF-CEM): 78 nM
- IC50 (Tubulin): 6.88 µM

SMILES: COc1ccc2c(c1)CCC(=O)/C2=C/c1ccc(O)c(OC)c1
- IC50 (HCT-116): 7500 nM
- IC50 (MDA-MB-435): 4510 nM
- IC50 (CCRF-CEM): 5810 nM

SMILES: COc1ccc2c(c1)/C(=C\c1ccccc1)C(=O)CC2
- IC50 (HCT-116): 3210 nM
- IC50 (MDA-MB-435): 1450 nM
- IC50 (CCRF-CEM): 1530 nM

SMILES: COc1ccc(/C=C2/C(=O)CCc3ccc(OC)cc32)cc1
- IC50 (HCT-116): 1910 nM
- IC50 (MDA-MB-435): 730 nM
- IC50 (CCRF-CEM): 890 nM

SMILES: COc1ccc(/C=C2/C(=O)CCc3c(OC)cccc32)cc1
- IC50 (HCT-116): 3580 nM
- IC50 (MDA-MB-435): 1370 nM
- IC50 (CCRF-CEM): 2640 nM

SMILES: COc1cccc2c1CCC(=O)/C2=C/c1ccccc1
- IC50 (HCT-116): > 10000 nM
- IC50 (MDA-MB-435): 6310 nM
- IC50 (CCRF-CEM): 8690 nM

SMILES: COc1ccc(/C=C2/C(=O)CCc3c(OC)cccc32)cc1OC
- IC50 (HCT-116): 2120 nM
- IC50 (MDA-MB-435): 1540 nM
- IC50 (CCRF-CEM): 1350 nM

SMILES: COc1cccc2c1CCC(=O)/C2=C/c1ccc(C)cc1
- IC50 (HCT-116): > 10000 nM
- IC50 (MDA-MB-435): > 10000 nM
- IC50 (CCRF-CEM): > 10000 nM

SMILES: COc1cccc2c1CCC(=O)/C2=C/c1ccc(N(C)C)cc1
- IC50 (HCT-116): 9780 nM
- IC50 (MDA-MB-435): 7760 nM
- IC50 (CCRF-CEM): > 10000 nM

SMILES: COc1cc(/C=C2/C(=O)CCc3ccc(OC)cc32)cc(OC)c1
- IC50 (HCT-116): 500 nM
- IC50 (MDA-MB-435): 850 nM
- IC50 (CCRF-CEM): 260 nM

SMILES: COc1ccc2c(c1)CCC(=O)/C2=C/c1ccc(OC)c(O)c1
- IC50 (HCT-116): 320 nM
- IC50 (MDA-MB-435): 630 nM
- IC50 (CCRF-CEM): 120 nM

SMILES: COc1cccc2c1CCC(=O)/C2=C/c1ccc(Cl)c(Cl)c1
- IC50 (HCT-116): > 10000 nM
- IC50 (MDA-MB-435): > 10000 nM
- IC50 (CCRF-CEM): > 10000 nM

SMILES: COc1ccc2c(c1)/C(=C\c1ccccc1Cl)C(=O)CC2
- IC50 (HCT-116): 2350 nM
- IC50 (MDA-MB-435): 1680 nM
- IC50 (CCRF-CEM): 5260 nM

SMILES: COc1ccc2c(c1)CCC(=O)/C2=C/c1cccc(O)c1
- IC50 (HCT-116): 1760 nM
- IC50 (MDA-MB-435): 760 nM
- IC50 (CCRF-CEM): 1460 nM

SMILES: COc1ccc2c(c1)/C(=C\c1ccc(N(C)C)cc1)C(=O)CC2
- IC50 (HCT-116): > 10000 nM
- IC50 (MDA-MB-435): > 10000 nM
- IC50 (CCRF-CEM): > 10000 nM

More lines, main results first:

- IC50 (HCT-116): 3680 nM
- IC50 (MDA-MB-435): 2620 nM
SMILES: COc1ccc2c(c1)/C(=C\c1ccc(C)cc1)C(=O)CC2
- IC50 (CCRF-CEM): 3770 nM

- IC50 (HCT-116): 5770 nM
- IC50 (MDA-MB-435): 3350 nM
SMILES: COc1cccc2c1CCC(=O)/C2=C/c1ccccc1Cl
- IC50 (CCRF-CEM): 8910 nM

- IC50 (HCT-116): > 10000 nM
- IC50 (MDA-MB-435): > 10000 nM
SMILES: COc1cccc2c1CCC(=O)/C2=C/c1ccc(OC)c(OC)c1OC
- IC50 (CCRF-CEM): > 10000 nM

- IC50 (HCT-116): 6700 nM
- IC50 (MDA-MB-435): 1770 nM
SMILES: COc1ccc2c(c1)CCC(=O)/C2=C/c1ccc(C(C)(C)C)cc1
- IC50 (CCRF-CEM): 3100 nM

- IC50 (HCT-116): > 10000 nM
- IC50 (MDA-MB-435): > 10000 nM
SMILES: COc1ccc2c(c1)/C(=C\c1ccc(Cl)c(Cl)c1)C(=O)CC2
- IC50 (CCRF-CEM): > 10000 nM

- IC50 (HCT-116): > 10000 nM
- IC50 (MDA-MB-435): > 10000 nM
SMILES: COc1cccc2c1CCC(=O)/C2=C/c1ccc(C(C)(C)C)cc1
- IC50 (CCRF-CEM): > 10000 nM

- IC50 (HCT-116): 1680 nM
- IC50 (MDA-MB-435): 950 nM
- IC50 (Tubulin): 25.78 µM
SMILES: COc1ccc2c(c1)CCC(=O)/C2=C/c1ccc(OC)c(OC)c1OC
- IC50 (CCRF-CEM): 850 nM

- IC50 (HCT-116): 1130 nM
- IC50 (MDA-MB-435): 450 nM
SMILES: COc1ccc2c(c1)CCC(=O)/C2=C/c1ccc(O)cc1
- IC50 (CCRF-CEM): 960 nM

- IC50 (HCT-116): 2320 nM
- IC50 (MDA-MB-435): 750 nM
SMILES: COc1ccc2c(c1)CCC(=O)/C2=C/c1ccc(C(F)(F)F)cc1
- IC50 (CCRF-CEM): 1210 nM

- IC50 (HCT-116): 8950 nM
- IC50 (MDA-MB-435): > 10000 nM
SMILES: COc1ccc2c(c1)/C(=C\c1ccc([N+](=O)[O-])cc1)C(=O)CC2
- IC50 (CCRF-CEM): > 10000 nM

- IC50 (HCT-116): 2520 nM
- IC50 (MDA-MB-435): 1230 nM
SMILES: COc1ccc2c(c1)CCC(=O)/C2=C/c1ccc(Cl)c(Cl)c1
- IC50 (CCRF-CEM): 1860 nM

- IC50 (HCT-116): 1240 nM
- IC50 (MDA-MB-435): 610 nM
- IC50 (Tubulin): 18.68 µM
SMILES: COc1cccc2c1CCC(=O)/C2=C/c1cc(OC)c(OC)c(OC)c1
- IC50 (CCRF-CEM): 2190 nM

- IC50 (HCT-116): 1370 nM
- IC50 (MDA-MB-435): 1050 nM
SMILES: COc1ccc2c(c1)/C(=C\c1ccc(OC)c(O)c1)C(=O)CC2
- IC50 (CCRF-CEM): 1420 nM

- IC50 (HCT-116): 860 nM
- IC50 (MDA-MB-435): 210 nM
- IC50 (Tubulin): 25.82 µM
SMILES: COc1ccc(/C=C2/C(=O)CCc3cc(OC)ccc32)cc1
- IC50 (CCRF-CEM): 110 nM
